# Literature values in publication PMC12776573, “Mechanism of Self-Assembly of the Gonadropin Releasing Hormone Antagonist Teverelix into Amyloid Fibrils” (Molecular Pharmaceutics, 2025).
# Square brackets hold non-standard residues; d marks the D form. Peptide text beside a SMILES is read from it. dPhe(4-Cl) = N[C@H](Cc1ccc(Cl)cc1)C(=O)O; d2Nal = N[C@H](Cc1ccc2ccccc2c1)C(=O)O; d(hCit) = NC(=O)NCCCC[C@@H](N)C(=O)O; Lys(iPr) = CC(C)NCCCC[C@H](N)C(=O)O; d3Pal = N[C@H](Cc1cccnc1)C(=O)O
# Details: side chain of Tv thought to be deprotonated on fibril formation; not measured here, no reference given
# From the text: Calculations establish that a single deprotonation event occurs (see the footnote to Table S1). Considering the pK a of all possible protonation sites in Tv, we think that the pyridine side c ...
smiles,measurement,value
"CC(=O)N[C@H](Cc1ccc2ccccc2c1)C(=O)N[C@H](Cc1ccc(Cl)cc1)C(=O)N[C@H](Cc1cccnc1)C(=O)N[C@@H](CO)C(=O)N[C@@H](Cc1ccc(O)cc1)C(=O)N[C@H](CCCCNC(N)=O)C(=O)N[C@@H](CC(C)C)C(=O)N[C@@H](CCCCNC(C)C)C(=O)N1CCC[C@H]1C(=O)N[C@H](C)C(N)=O [Tv, Ac-D-Nal(2)-D-Phe(4Cl)-D-Pal(3)-Ser-Tyr-D-Hcit-Leu-Lys(iPr)-Pro-D-Ala-NH2] (Ac-[d2Nal][dPhe(4-Cl)][d3Pal]SY[d(hCit)]L[Lys(iPr)]P[dA]-NH2)",pKa of the pyridine side chain,5.22
